Results on one compound are retold here after patent US20110046141A1, “USE OF PDE5 INHIBITORS FOR TREATING CIRCADIAN RHYTHM DISORDERS” (CONSEJO NACIONAL DE INVESTIGACIONES CIENTIFICAS Y TECNICAS …, priority 2007, published 2011).

Data set [1] concerns Syrian hamsters (Mesocricetus auratus). Briefly: Reentrainment of wheel-running activity rhythm after an abrupt 6-h advance of the LD cycle. It counts as in vivo. Conditions: for time to resynchronize to the new LD cycle: saline 12±2 days; for decrease in reentrainment time: FIG. 1D. As for the experimental part:
Animals. Male adult (3-4 month-old) Syrian hamsters (Mesocricetus auratus) were raised and maintained in a 14:10 h light-dark cycle (L:D, lights on at 0600 h), with food and water ad libitum and room temperature set at 20±2° C. All animal procedures were performed in strict accordance with NIH rules for animal care and maintenance. Activity rhythm recording. For the resynchronization experiment, animals were transferred to individual cages equipped with a running wheel (17 cm. diameter) and with light intensity averaging 200 lux at cage level. Running-wheel activity was continuously recorded for each animal using a digital system that registers wheel revolutions and stored at 5-min intervals for further analysis. Animals were initially maintained under a 14:10-h is light-dark cycle (LD, lights on at 1900 h) for at least 10 days. Then, hamsters were subjected to an abrupt 6-h advance in the phase of the LD cycle. On the day of the phase shift, intraperitoneal (i.p) injection of sildenafil or vehicle was given at zeitgeber time (ZT) 18, defining ZT 12 as the time of lights off. Time for reentrainment to the new LD cycle was defined as the time it took for each animal to adjust its activity onset with the new cycle (onset at the new time of lights off±15 minutes). Daily onsets of activity were determined. Briefly, activity onset was defined as the 10 min-bin that contained at least 80 wheel revolutions, followed by another bin of at least another 80 wheel revolutions within 40 min. The effect of 1, 3.5 or 10 mg/kg sildenafil—extracted from commercial preparations according to Francis et al. (Int. J. Impotence Res. 2003 15: 369-372) was tested at ZT 14 or 18 in comparison to vehicle administration (sterile saline).

For data set [2] the test system is unchanged. Kind of data set: Light-induced phase advances of activity rhythm, 15-min 50 lux light pulse at CT 18 in constant dark. The settings on record: for light-induced phase advance: vehicle 76±23 min. It counts as in vivo. As to the method:
Animals. Male adult (3-4 month-old) Syrian hamsters (Mesocricetus auratus) were raised and maintained in a 14:10 h light-dark cycle (L:D, lights on at 0600 h), with food and water ad libitum and room temperature set at 20±2° C. All animal procedures were performed in strict accordance with NIH rules for animal care and maintenance.
For light pulse experiments, hamsters were placed in constant dark (DD) conditions, and exposed to a 15-min white light pulse of 50 lux at either circadian time (CT) 14 or 18 (with CT 12 defined as the onset of wheel running activity in DD). Phase shifts were calculated by fitting a line (by three observers masked to the experimental procedure) through activity onsets 5 days prior and between 5 and 15 days after light exposure and then comparing these two lines on the day of the light pulse. […]

For data set [3] the test system is unchanged. Kind of data set: Reentrainment of wheel-running activity rhythm after a 6-hr phase delay of the LD cycle. It counts as in vivo. The settings on record: 3.5 mg/kg i.p. at ZT 14; 6-hr delay; FIG. 3A. As to the method: (A) Effect on reentrainment of wheel-running activity rhythm following a 6-hr phase delay of the LD cycle. Double-plotted actograms of hamster wheel-running activity showing reentrainment to a 6-hr delay of the LD cycle after the injection of vehicle (top) and sildenafil (3.5 mg/kg, i.p., middle). Injections of either saline or sildenafil were given at ZT 14 on the day of the cycle change (white star). Bottom: mean±S.E.M. (n=4 animals per group) of days needed for reentrainment. (B) Effect of sildenafil on light-induced phase delays following light pulses at CT 14. Representative actograms showing vehicle (top) or sildenafil (middle) injections. Bottom graph: Mean±S.E.M. (n=4 animals per group). Animals. Male adult (3-4 month-old) Syrian hamsters (Mesocricetus auratus) were raised and maintained in a 14:10 h light-dark cycle (L:D, lights on at 0600 h), with food and water ad libitum and room temperature set at 20±2° C. All animal procedures were performed in strict accordance with NIH rules for animal care and maintenance. Activity rhythm recording. […] Running-wheel activity was continuously recorded for each animal using a digital system that registers wheel revolutions and stored at 5-min intervals for further analysis. […] Daily onsets of activity were determined. […]

Data set [4] has the same test system. Kind of data set: Light-induced phase delays of activity rhythm, light pulse at CT 14. It counts as in vivo. Conditions: FIG. 3B. As to the method:
(A) Effect on reentrainment of wheel-running activity rhythm following a 6-hr phase delay of the LD cycle. Double-plotted actograms of hamster wheel-running activity showing reentrainment to a 6-hr delay of the LD cycle after the injection of vehicle (top) and sildenafil (3.5 mg/kg, i.p., middle). Injections of either saline or sildenafil were given at ZT 14 on the day of the cycle change (white star). Bottom: mean±S.E.M. (n=4 animals per group) of days needed for reentrainment. (B) Effect of sildenafil on light-induced phase delays following light pulses at CT 14. Representative actograms showing vehicle (top) or sildenafil (middle) injections. Bottom graph: Mean±S.E.M. (n=4 animals per group). Animals. Male adult (3-4 month-old) Syrian hamsters (Mesocricetus auratus) were raised and maintained in a 14:10 h light-dark cycle (L:D, lights on at 0600 h), with food and water ad libitum and room temperature set at 20±2° C. All animal procedures were performed in strict accordance with NIH rules for animal care and maintenance. […] Phase shifts were calculated by fitting a line (by three observers masked to the experimental procedure) through activity onsets 5 days prior and between 5 and 15 days after light exposure and then comparing these two lines on the day of the light pulse. […]

Data set [5] concerns cGMP levels in the hamster SCN. Kind of data set: Determination of cGMP levels in the SCN by direct enzyme immunoassay. It is filed as in vivo. Conditions: n=4. As for the experimental part: Determination of cGMP levels. Cyclic GMP content was determined using a direct enzyme immunoassay kit (Correlate-EIA #900-014, Assay Designs, Ann Arbor, Mich.). Hamsters received an injection of sildenafil (3.5 mg/kg, i.p.) or vehicle (sterile saline solution) at CT 18 and were sacrificed by decapitation 45-90 min later. The SCN were quickly punched out and immediately frozen in liquid nitrogen in order to avoid endogenous cGMP degradation. Tissue was grounded to a fine powder under liquid nitrogen and then homogenized in 0.1 M HCI. The overnight acetylated format of the kit was used. […] In order to precisely compare the effect of sildenafil on cGMP levels, the use of other phosphodiesterase inhibitors, e.g., IBMX, was avoided.

Data set [6] deals with Syrian hamsters (Mesocricetus auratus). Briefly: Observation of sildenafil-induced penile erections in treated hamsters. The settings on record: intermediate dose 3.5 mg/kg i.p. It is filed as in vivo.
Another data set relates to rats. The settings on record: i.p.; cited from earlier work.

Consider `CCCc1nn(C)c2c(=O)[nH]c(-c3cc(S(=O)(=O)N4CCN(C)CC4)ccc3OCC)nc12` [sildenafil, 5-[2-ethoxy-5-(4-methyl-1-piperazinylsulphonyl)phenyl]-1-methyl-3-n-propyl-1,6-dihydro-7H-pyrazolo[4,3-d]pyrimidin-7-one], for which the “time to resynchronize to the new LD cycle” value in data set [1] (1 mg/kg i.p. at ZT 18, p>0.05 vs. control) came out at 9 ± 3 days; in data set [1] (3.5 mg/kg i.p. at ZT 18 on day of 6-h advance, mean±SD, six animals per group, p<0.05), 8 ± 1 days; in data set [1] (10 mg/kg i.p. at ZT 18, p<0.001 vs. control) it was 6 ± 2 days. In addition, the “decrease in reentrainment time” value is listed as 25% in data set [1] (1 mg/kg), 33% in data set [1] (3.5 mg/kg) and 50% in data set [1] (10 mg/kg). Further, the light-induced phase advance in data set [2] (3.5 mg/kg i.p. 45 min prior to light pulse at CT 18, mean±SD, p<0.05) amounted to 150.4 ± 64.8 min; in data set [2] (injection 90 min before light pulse at CT 18, not significantly different from controls) it was 123 ± 27 min. The post-treatment circadian period entry in data set [2] (after light-induced phase advance) is “did not change”. Further, in data set [2] (without light pulse), the “effect on activity rhythms, drug alone” value is listed as “did not modify activity rhythms”. The “effect on reentrainment rates after a delay in the LD cycle” value in data set [3] is given as “did not affect”. For the same compound, the “effect on light-induced phase delays” value in data set [4] was “did not affect”. The “SCN cGMP levels” value is listed as 0.63±0.08 pmol cGMP/mg protein in data set [5] (3.5 mg/kg i.p. at CT 18, 45 minutes after injection, saline 0.37±0.20, control 0.29±0.15, mean±SD) and 0.37±0.20 pmol cGMP/mg protein in data set [5] (90 min after injection, saline 0.26±0.16, no increase vs controls). For the same compound, the sildenafil-induced penile erections result in data set [6] is reported as “did not manifest the effects of sildenafil-induced penile erections”. In addition, in the data set with rats, the optimal erectogenic dose is reported as 5 mg/kg/day.
